For data set [1] the following is noted: IP, 50 mg/kg, vehicle PEG400:H2O pH 2.3 30:70.
Data set [2] in a line: in vivo. Particulars: mouse, plasma, ip, 50 mg/kg, pH 2.3.
Data set [3] relates to lung cancer cells (line MV522). Briefly: Cancer cell proliferation (MV522) assay. The format is cell-based. Particulars: MV522, read-out: MV522 IC50 (µM). The essentials:
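MTT reduction read-out was taken 72 h after addition of test agents, with no prior serum starvation. Cells were plated beforehand at two thousand per well in RPMI1640 containing 10% FBS and 2 mM glutamine and allowed one day to adhere.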

Data set [4] concerns the target T1, phosphorylated Tie-2 (aa 775-1122) (Homo sapiens, UniProt Q02763).
T1 construct: 4 to 12 nM phosphorylated Tie-2 (aa 775-1122); made in house; host or cells: insect cells
As to the kind of experiment: TIE-2 spectrophotometric assay. The class given is biochemical. The following applies: for inhibition at 1 µM: Table 5, bold values spectrophotometric assay, non-bolded DELFIA assay (bold not visible here), read-out: % Inhibition @ 1 µM Tie2-P. The essentials: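 Human phosphorylated Tie-2 kinase activity was measured spectrophotometrically by coupling ADP formation, from phosphoryl transfer to poly(Glu4 Tyr), to NADH oxidation via pyruvate kinase and lactate dehydrogenase. Absorbance loss at 340 nm was read on a Beckman DU650. Reactions held 1 mM phosphoenolpyruvate, 0.24 mM NADH, 40 mM MgCl2, 5 mM DTT, 0.5 mM ATP, and 15 units/mL each of PK and LDH in 100 mM HEPES, pH 7.5.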

Data set [5] can be described thus: in vitro. Particulars: human liver microsomes, 5 µM test compound, 37 °C, 2 h. The format is in vitro ADME, human. The essentials: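 HLM diluted to 5 mg/mL in 100 mM KPO4, preincubated 10 min at 37 °C with NADPH-regenerating system. Compound (5 µM final) incubated at 37 °C in triplicate, sampled at 0 and 2 h into ice-cold acetonitrile, then LC-MS analysis.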
(Liver microsomes are vesicles of endoplasmic reticulum, rich in cytochrome P450 enzymes.)

The target of data set [6] is T2, human FAK (FAKcd409) (Homo sapiens, UniProt Q05397, P410T).
T2 construct: comprises residues methionine 409 to glutamate 689; made in house; host or cells: baculovirus vector expression system (insect cells)
As to the kind of experiment: FAK fluorescence polarization assay. The class given is biochemical. Particulars: for inhibition at 1 µM: Table 5, read-out: % Inhibition @ 1 µM FAK. The protocol: FAK Construct for Assay. The catalytic domain of human FAK (FAKcd409) was expressed using the baculovirus vector expression system. […] The protein was purified using classical chromatography techniques.
FAK HTS utilized the fluorescence polarization assay provided by LJL Biosystems. The kinase reaction contained: 100mM Hepes pH 7.5, 10mM MgCl2, 1mM DTT, 1mM ATP, and 1mg/ml poly Glu-Tyr (4: 1). The reaction is initiated by the addition of 5nM FAKcd409. The reaction is terminated by the addition of EDTA followed by addition of fluor-labelled peptide and anti-phosphotyrosine antibody, both provided by LJL Biosystems. Inhibition results are read on a Analyst (LJL) detector.

The target in data set [7] is LCK tyrosine kinase (Homo sapiens, UniProt P06239, C224D/P223M). Briefly: LCK spectrophotometric assay. The class given is biochemical. Particulars: Table 1; compound concentration 1 µM; read-out: Lck-P* (% inhibition). The protocol: The spectrophotometric assay was carried out as described above for VEGF-R2, except for the following changes in concentration: LCK = 60 nM, MgCl2 = 0 mM, poly(E4Y1) = 20 mM.

Data set [8] concerns the target T3, human CHK1 (FL-CHK1) (Homo sapiens, UniProt O14757).
T3 construct: C-terminally His-tagged full-length human CHK1 (FL-CHK1) was expressed using the baculovirus/insect cell system; made in house; host or cells: baculovirus/insect cell system
T3 sequence (O14757 1-476): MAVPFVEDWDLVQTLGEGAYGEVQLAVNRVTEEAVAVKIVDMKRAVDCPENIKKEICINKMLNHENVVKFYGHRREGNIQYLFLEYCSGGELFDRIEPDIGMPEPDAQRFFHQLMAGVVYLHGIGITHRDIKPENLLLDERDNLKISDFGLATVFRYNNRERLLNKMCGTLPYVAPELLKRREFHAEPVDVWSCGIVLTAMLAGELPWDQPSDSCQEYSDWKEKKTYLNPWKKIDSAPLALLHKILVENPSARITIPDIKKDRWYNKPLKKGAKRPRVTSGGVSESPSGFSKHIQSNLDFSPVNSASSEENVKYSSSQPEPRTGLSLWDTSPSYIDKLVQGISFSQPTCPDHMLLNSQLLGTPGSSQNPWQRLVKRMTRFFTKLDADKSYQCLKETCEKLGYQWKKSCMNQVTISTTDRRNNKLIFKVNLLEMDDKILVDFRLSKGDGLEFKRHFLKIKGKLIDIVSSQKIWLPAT
Briefly: CHK1 coupled spectrophotometric assay. The format is biochemical. The following applies: read-out: CHK -1* (% inhibition). The essentials: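 His-tagged full-length human CHK1 from baculovirus/insect cells, 10 nM, phosphorylating Syntide-2. ADP formation coupled via PK/LDH with PEP to NADH oxidation, followed as absorbance decrease at 340 nm. Ki from initial rates at varying compound concentrations.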

The target of data set [9] is CDK2/Cyclin A complex (Homo sapiens, UniProt P24941). As to the kind of experiment: CDK2/Cyclin A assay ([32P]ATP incorporation into Rb fragment). The class given is biochemical. Particulars: read-out: CDK2 * (% inhibition).
Data set [10] has as its target CDK1 (Homo sapiens, UniProt P06493). Briefly: CDK1 assay (Table 3). The format is biochemical. Particulars: compound concentration 1 µM, NI = no significant inhibition.
Data set [11] concerns the target CDK4/Cyclin D3 complex (Homo sapiens, UniProt P11802). As to the kind of experiment: biochemical. The following applies: read-out: CDK4 * (% inhibition).
Data set [12] has as its target unphosphorylated VEGF-R2Δ50 (Homo sapiens, UniProt P35968, DEL940-989/E990V). Briefly: biochemical. The following applies: read-out: FLVK* (% inhibition).
Data set [13] relates to human umbilical vein endothelial cells (HUVEC). As to the kind of experiment: HUVEC proliferation assay (VEGF-stimulated, MTT). The format is cell-based. Particulars: Homo sapiens, HUVEC, Table 1.
The target of data set [14] is human FGF-R1 (Homo sapiens, UniProt P11362, C488A/C584S/L457V). Briefly: FGF-R spectrophotometric assay. The class given is biochemical. The following applies: Table 1; compound concentration 1 µM; read-out: FGF-P* (% inhibition). The method, then:
The spectrophotometric assay was carried out as described above for VEGF-R2, except for the following changes in concentration: FGF-R = 50 nM, ATP = 2 mM, and poly(E4Y1) =15 mM.

[15] abbreviates: Table 3, read-out: CDK1* (% inhibition).
Where [16] appears, read: + albumin, read-out: HUVEC + albumin IC50.

SMILES strings stand for the structures. pIC50: −log10 of the molar value. Where two headings read alike, the source gives them in different places.

T2 sequence (Q05397 409-689 P410T): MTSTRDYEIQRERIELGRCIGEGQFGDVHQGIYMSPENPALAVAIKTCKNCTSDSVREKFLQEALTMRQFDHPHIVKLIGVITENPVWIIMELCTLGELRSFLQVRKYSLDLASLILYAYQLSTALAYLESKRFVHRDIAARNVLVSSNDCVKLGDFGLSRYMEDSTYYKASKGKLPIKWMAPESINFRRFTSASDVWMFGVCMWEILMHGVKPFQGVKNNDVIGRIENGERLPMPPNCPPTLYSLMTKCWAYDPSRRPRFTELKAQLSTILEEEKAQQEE
T1 sequence (Q02763 775-1122): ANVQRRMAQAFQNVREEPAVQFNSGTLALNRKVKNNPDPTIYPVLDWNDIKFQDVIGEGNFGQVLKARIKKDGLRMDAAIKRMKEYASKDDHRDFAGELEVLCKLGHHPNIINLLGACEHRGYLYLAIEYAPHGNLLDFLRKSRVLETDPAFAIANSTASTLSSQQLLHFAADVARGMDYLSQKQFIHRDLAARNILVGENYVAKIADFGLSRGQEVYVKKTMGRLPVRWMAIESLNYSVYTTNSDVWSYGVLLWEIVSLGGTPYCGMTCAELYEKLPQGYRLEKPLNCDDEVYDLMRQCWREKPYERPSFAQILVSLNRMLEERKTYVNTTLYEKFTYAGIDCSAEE
CDK4/Cyclin D3 complex, sequence (P11802 whole entry): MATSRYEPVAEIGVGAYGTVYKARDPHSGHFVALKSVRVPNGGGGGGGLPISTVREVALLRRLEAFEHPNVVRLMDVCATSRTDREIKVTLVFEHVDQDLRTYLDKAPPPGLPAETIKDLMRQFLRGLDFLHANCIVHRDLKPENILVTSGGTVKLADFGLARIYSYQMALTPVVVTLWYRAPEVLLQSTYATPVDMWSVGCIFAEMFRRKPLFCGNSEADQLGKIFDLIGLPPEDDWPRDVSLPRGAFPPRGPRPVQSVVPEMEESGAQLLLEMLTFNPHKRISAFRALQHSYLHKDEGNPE
CDK4/Cyclin D3 complex, sequence (P30281 whole entry partner): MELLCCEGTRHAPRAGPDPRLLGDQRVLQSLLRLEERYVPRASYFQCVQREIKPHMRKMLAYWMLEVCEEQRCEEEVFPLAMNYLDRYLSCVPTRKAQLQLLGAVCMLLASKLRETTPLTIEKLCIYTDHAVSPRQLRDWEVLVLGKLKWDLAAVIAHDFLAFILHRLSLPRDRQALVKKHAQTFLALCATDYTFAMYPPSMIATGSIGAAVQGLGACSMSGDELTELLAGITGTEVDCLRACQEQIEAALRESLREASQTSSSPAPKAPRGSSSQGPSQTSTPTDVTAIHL
LCK tyrosine kinase, sequence (P06239 223-509 P223M/C224D): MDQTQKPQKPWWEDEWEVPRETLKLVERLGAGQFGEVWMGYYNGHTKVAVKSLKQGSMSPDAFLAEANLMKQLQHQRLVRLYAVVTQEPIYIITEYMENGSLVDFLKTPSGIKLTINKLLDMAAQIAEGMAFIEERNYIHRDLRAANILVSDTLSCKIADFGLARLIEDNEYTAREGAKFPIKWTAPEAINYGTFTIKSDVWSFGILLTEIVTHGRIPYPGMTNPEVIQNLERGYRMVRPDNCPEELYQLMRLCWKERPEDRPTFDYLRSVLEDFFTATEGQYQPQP
CDK1, sequence (P06493 whole entry, species assumed): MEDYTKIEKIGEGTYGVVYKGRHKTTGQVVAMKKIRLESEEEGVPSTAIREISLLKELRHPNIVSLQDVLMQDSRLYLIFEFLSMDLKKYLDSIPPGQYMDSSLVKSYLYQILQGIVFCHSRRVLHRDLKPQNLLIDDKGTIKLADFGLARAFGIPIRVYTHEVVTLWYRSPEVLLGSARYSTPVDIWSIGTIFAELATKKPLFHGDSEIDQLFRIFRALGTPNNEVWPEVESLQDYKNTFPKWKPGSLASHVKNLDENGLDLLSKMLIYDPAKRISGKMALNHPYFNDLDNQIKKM
CDK1, sequence (P14635 whole entry partner, species assumed): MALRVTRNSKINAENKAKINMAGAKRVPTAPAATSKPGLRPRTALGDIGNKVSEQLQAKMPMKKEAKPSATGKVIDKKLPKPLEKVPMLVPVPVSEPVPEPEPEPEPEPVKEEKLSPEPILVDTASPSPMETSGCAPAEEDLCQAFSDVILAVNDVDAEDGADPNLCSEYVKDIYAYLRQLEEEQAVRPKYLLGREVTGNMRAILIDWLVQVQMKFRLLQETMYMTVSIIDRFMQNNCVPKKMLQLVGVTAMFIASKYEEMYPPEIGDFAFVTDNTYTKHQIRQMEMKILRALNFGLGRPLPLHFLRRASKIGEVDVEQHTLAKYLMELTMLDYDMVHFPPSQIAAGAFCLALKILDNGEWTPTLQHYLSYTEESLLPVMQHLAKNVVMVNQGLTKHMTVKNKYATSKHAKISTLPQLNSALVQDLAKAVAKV
unphosphorylated VEGF-R2Δ50, sequence (P35968 with tags, fused parts or gaps DEL940-989/E990V limits assumed): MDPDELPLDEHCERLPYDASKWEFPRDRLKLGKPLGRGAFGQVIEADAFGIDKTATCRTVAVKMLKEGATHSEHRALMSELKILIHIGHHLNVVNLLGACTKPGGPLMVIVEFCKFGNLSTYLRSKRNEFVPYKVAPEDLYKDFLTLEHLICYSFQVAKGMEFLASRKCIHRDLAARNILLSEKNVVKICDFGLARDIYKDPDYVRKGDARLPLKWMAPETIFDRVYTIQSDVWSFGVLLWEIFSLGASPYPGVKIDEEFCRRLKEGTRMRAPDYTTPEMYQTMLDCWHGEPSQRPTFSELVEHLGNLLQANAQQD
human FGF-R1, sequence (P11362 456-766 L457V/C488A/C584S): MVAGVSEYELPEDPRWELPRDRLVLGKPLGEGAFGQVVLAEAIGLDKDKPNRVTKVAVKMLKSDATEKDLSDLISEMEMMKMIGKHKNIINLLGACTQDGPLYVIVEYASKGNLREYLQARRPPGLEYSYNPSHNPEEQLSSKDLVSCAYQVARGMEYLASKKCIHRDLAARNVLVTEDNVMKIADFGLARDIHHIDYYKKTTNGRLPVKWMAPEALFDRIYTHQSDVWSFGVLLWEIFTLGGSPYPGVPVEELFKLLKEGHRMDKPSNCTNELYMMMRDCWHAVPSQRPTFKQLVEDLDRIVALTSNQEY

Broadly, the AUC is concentration integrated over time. Read a low AUC as less exposure. A word on the IC50: it is the concentration that inhibits the measured activity by half. The inhibition is the drop in the measured response relative to a control, in per cent. For `COc1cc(-c2ccc3c(/C=C/c4ccc(OC)c(OC)c4)n[nH]c3c2)ccc1O` [1(a), 3-[E-2-(3,4-Dimethoxy-phenyl)vinyl]-6-(3-methoxy-4-hydroxyphenyl)-1H-indazole], the T1/2 in [1] came to 2.4 h. For the same compound, the AUC in data set [2] was 691 ng·h/mL. Further, the IC50 in [3] came to 0.35 µM. The inhibition at 10 µM in data set [4] (read-out: % Inhibition Tie2-P, compound tested at 10 µM) was determined as 95%; in [6] (read-out: % Inhibition FAK, compound tested at 10 µM), 69%. In addition, the “% remain (HLM, 2 h)” value in [5] amounted to 98%.
In the case of `CCn1nc(C)cc1C(=O)Nc1cc(Nc2ccc3c(/C=C/c4ccccn4)n[nH]c3c2)c(F)cc1C` [Example 48(a), 6-[N.(S-((1-Ethyl-3-methyl-1H-pyrazol-5-yl)carboxamido)-2-fluoro-4-methylphenyl)amino]-3-E-[2-(pyridin-2-yl)ethenyl]-1H-indazole], the inhibition at 1 µM amounted to 13% in data set [7]; 0% in data set [8]; 52% in data set [4]; 11% in data set [6]; 0% in data set [9]. Further, in data set [5], the “% remain (HLM, 2 h)” value was determined as 55%.
In the case of `NC(=O)c1ccc2c(-c3nc4ccccc4[nH]3)n[nH]c2c1` [Example 53(e), 3-(1H-Benzoimidazol-2-yl)-1H-indazole-6-carboxamide], in data set [10] (setting [15]), the inhibition at 1 µM worked out at 13%.
On to `O=C(Nc1ccc(O)cc1)c1ccc2c(-c3nc4cc(F)c(F)cc4[nH]3)n[nH]c2c1` [Example 54(a), 3-(5,6-Difluoro-1H-benzoimidazol-2-yl)-N-(4-hydroxyphenyl)-1H-indazole-6-carboxamide], for which, in [10] (setting [15]), the inhibition at 1 µM was 1%.
As to `O=C(Nc1ccc(O)cc1)c1ccc2c(-c3nc4ccc5ccccc5c4[nH]3)n[nH]c2c1` [Example 54(e), 3-[1H-Naphtho(1,2-d)imidazol-2-yl]-N-(4-hydroxyphenyl)-1H-indazole-6-carboxamide], the “CDK1* (% inhibition)” value in [10] (Table 3) was “Nl @ 1µM”.
In the case of `CC(C)(C)c1ccc2[nH]c(-c3n[nH]c4cc(C(=O)Nc5ccc(O)cc5)ccc34)nc2c1` [Example 54(g), 3-(5-tert-Butyl-1H-benzoimidazol-2-yl)-N-(4-hydroxyphenyl)-1H-indazole-6-carboxamide], the inhibition at 1 µM in data set [10] (setting [15]) worked out at 3%.
On to `CCOc1cc(-c2ccc3c(/C=C/c4ccccc4)n[nH]c3c2)ccc1O` [Reference Example 27(h), 6-[3-ethoxy-4-hydroxyphenyl]-3-E-styryl-1H-indazole], for which the inhibition at 1 µM in data set [10] (setting [15]) worked out at 84%.
Consider `OCCOc1cc(-c2ccc3c(/C=C/c4ccccc4)n[nH]c3c2)ccc1O` [Reference Example 27(i), 6-[3-(2-hydroxyethoxy)-4-hydroxyphenyl]-3-E-styryl-1H-indazole], for which the inhibition at 1 µM in data set [10] (setting [15]) was determined as 85%; in data set [11], 92%; in data set [9], 73%.
For `Oc1cccc(-c2ccc3c(/C=C/c4ccccc4)n[nH]c3c2)c1` [Reference Example 28(a), 6-(3-hydrophenyl)-3-E-styryl-1H-indazole], the inhibition at 1 µM is 84% in data set [12], 77% in data set [10] (setting [15]), 79% in data set [11] and 75% in data set [9].
For `Oc1ccc(-c2ccc3c(/C=C/c4ccccc4)n[nH]c3c2)cc1O` [Reference Example 28(d), 6-(3,4-dihydroxyphenyl)-3-E-styryl-1H-indazole], the inhibition at 1 µM in [10] (setting [15]) was 93%; in data set [11] it was 87%; in data set [9], 66%.
With `Clc1ccc(/C=C/c2n[nH]c3cc(-c4ccncc4)ccc23)cc1` [Reference Example 29(c)], the inhibition at 1 µM in data set [10] (read-out: CDK1* (% inhibition), Table 3) was determined as 56%.
Regarding `Cc1nc(/C=C/c2n[nH]c3cc(-c4ccncc4)ccc23)cs1` [Reference Example 29(j), 6-pyrid-4-yl-3-E-[2-(2-methylthiazol-4-yl)ethenyl]-1H-indazole], the inhibition at 1 µM in data set [10] (setting [15]) amounted to 31%.
Same read-out and setting: next, `Fc1cc(F)cc(/C=C/c2n[nH]c3cc(-c4ccncc4)ccc23)c1` [Reference Example 29(m), 6-pyrid-4-yl-3-E-[2-(3,5-difluorophenyl)ethenyl]-1H-indazole]: 54%; `FC(F)(F)Oc1cccc(/C=C/c2n[nH]c3cc(-c4ccncc4)ccc23)c1` [Reference Example 29(p), 6-pyrid-4-yl-3-E-[2-(3-trfluorometboxyphenyl)ethenyl]-1H-indazole]: 6%.
By pIC50 is commonly meant the IC50 on a negative log10 scale, so that one unit is a factor of ten. As to `Cc1cc(C(=O)Nc2cccc(C(=O)c3ccc4c(/C=C/c5ccccn5)n[nH]c4c3)c2)n(C)n1` [Reference Example 41(p), 6-[3-((1,3-Dimethyl-1H-pyrazol-5-yl)carboxamido)benzoyl]-3-E-[2-(pyridin-2-yl)ethenyl]-1H-indazole], the pIC50 is 8.59 in [13] (setting [16]) and 9.57 in data set [13] (read-out: HUVEC IC50). Besides, the inhibition at 1 µM in [7] amounted to 49%; in [8], 0%; in [4], 49%; in data set [11], 3%; in data set [6], 9%; in data set [9], 6%. The “% remain (HLM, 2 h)” value in data set [5] stood at 62%.
`C=CCn1nc(C)cc1C(=O)Nc1cccc(C(=O)c2ccc3c(/C=C/c4ccccn4)n[nH]c3c2)c1` [Reference Example 41(t), 6-[3-((1-Allyl-3-methyl-1H-pyrazol-5-yl)carboxamido)benzoyl]-3-E-[2-(pyridin-2-yl)ethenyl]-1H-indazole]: the pIC50 in data set [13] (setting [16]) was 8.42. Also, the inhibition at 1 µM in [7] turned out to be 51%; in data set [14], 85%; in [8], 0%; in [4], 51%; in [11] it was 2%; in data set [6], 9%. In data set [9], the inhibition at 1 µM stood at 1%. Moreover, in data set [5], the “% remain (HLM, 2 h)” value came to 87%.

The record behind these values is EP1614683B1, “Indazole compounds and pharmaceutical compositions for inhibiting protein kinases, and methods for their use” (priority 1999, dated 2001).
